From patent US6117841A, “Substituted peptidylamine calcium channel blockers” (Warner-Lambert Company, priority 1999, dated 2000)

Experiments:
DBA/2 mice = assay: In vivo anticonvulsant activity, sound-induced tonic seizures in DBA/2 mice; conditions: tested 15 or 45 minutes after injection; for DBA/2 mice % Protection dose @ 30 mg/kg: 30 mg/kg intravenous; for DBA/2 mice % Protection (10 mg/kg): 10 mg/kg intravenous
Method: A compound of the present invention was dissolved in water using 10% (weight/volume) Emulphor (GAF Corp., Wayne, N.J.) surfactant. Substances were administered by intravenous injection into the retro-orbital venous sinus. All testing was performed 15 minutes or 45 minutes after drug injection. All the male mice, 3-4 weeks old were obtained from Jackson Laboratories Bar Harbour, Me. Immediately before anticonvulsant testing, mice were placed upon a wire mesh, 4 inches square suspended from a steel rod. The square was slowly inverted through 180 degrees and mice observed for 30 seconds. Any mouse falling from the wire mesh was scored as ataxia.
Mice were placed into an enclosed acrylic plastic chamber (21 cm height, approximately 30 cm diameter) with a high-frequency speaker (4 cm diameter) in the center of the top lid. An audio signal generator (Protek model B-810) was used to produce a continuous sinusoidal tone that was swept linearly in frequency between 8 kHz and 16 kHz once each 10 msec. The average sound pressure level (SPL) during stimulation was approximately 100 dB at the floor of the chamber. Mice were placed within the chamber and allowed to acclimatize for 1 minute. DBA/2 mice in the vehicle-treated group responded to the sound stimulus (applied until tonic extension occurred, or for a maximum of 60 sec) with a characteristic seizure sequence consisting of wild running followed by clonic seizures, and later by tonic extension, and finally by respiratory arrest and death in 80% or more of the mice. In vehicle-treated mice, the entire sequence of seizures to respiratory arrest lasts approximately 15-20 seconds.
The incidence of all the seizure phases in the drug-treated and vehicle-treated mice was recorded, and the occurrence of tonic seizures were used for calculatine anticonvulsant ED50 values by probit analysis. Mice were used only once for testing at each time and dose point.

N-type Ca^2+ Channel = molecular target: T1, N-type Ca^2+ Channel (Homo sapiens, UniProt Q00975); assay: Measurement of N-type Ca2+ channel blocking potencies in IMR-32 cells using the fluorescent Ca2+ indicator Indo-1; type: cell-based; conditions: IMR-32 cells, K+ depolarization, 5 μM nitrendipine to block L-type channels; read-out: IMR 32 IC50
T1 construct: host or cells: IMR-32 cells differentiated with dibutyryl cAMP and bromodeoxyuridine
T1 sequence (Q00975 whole entry): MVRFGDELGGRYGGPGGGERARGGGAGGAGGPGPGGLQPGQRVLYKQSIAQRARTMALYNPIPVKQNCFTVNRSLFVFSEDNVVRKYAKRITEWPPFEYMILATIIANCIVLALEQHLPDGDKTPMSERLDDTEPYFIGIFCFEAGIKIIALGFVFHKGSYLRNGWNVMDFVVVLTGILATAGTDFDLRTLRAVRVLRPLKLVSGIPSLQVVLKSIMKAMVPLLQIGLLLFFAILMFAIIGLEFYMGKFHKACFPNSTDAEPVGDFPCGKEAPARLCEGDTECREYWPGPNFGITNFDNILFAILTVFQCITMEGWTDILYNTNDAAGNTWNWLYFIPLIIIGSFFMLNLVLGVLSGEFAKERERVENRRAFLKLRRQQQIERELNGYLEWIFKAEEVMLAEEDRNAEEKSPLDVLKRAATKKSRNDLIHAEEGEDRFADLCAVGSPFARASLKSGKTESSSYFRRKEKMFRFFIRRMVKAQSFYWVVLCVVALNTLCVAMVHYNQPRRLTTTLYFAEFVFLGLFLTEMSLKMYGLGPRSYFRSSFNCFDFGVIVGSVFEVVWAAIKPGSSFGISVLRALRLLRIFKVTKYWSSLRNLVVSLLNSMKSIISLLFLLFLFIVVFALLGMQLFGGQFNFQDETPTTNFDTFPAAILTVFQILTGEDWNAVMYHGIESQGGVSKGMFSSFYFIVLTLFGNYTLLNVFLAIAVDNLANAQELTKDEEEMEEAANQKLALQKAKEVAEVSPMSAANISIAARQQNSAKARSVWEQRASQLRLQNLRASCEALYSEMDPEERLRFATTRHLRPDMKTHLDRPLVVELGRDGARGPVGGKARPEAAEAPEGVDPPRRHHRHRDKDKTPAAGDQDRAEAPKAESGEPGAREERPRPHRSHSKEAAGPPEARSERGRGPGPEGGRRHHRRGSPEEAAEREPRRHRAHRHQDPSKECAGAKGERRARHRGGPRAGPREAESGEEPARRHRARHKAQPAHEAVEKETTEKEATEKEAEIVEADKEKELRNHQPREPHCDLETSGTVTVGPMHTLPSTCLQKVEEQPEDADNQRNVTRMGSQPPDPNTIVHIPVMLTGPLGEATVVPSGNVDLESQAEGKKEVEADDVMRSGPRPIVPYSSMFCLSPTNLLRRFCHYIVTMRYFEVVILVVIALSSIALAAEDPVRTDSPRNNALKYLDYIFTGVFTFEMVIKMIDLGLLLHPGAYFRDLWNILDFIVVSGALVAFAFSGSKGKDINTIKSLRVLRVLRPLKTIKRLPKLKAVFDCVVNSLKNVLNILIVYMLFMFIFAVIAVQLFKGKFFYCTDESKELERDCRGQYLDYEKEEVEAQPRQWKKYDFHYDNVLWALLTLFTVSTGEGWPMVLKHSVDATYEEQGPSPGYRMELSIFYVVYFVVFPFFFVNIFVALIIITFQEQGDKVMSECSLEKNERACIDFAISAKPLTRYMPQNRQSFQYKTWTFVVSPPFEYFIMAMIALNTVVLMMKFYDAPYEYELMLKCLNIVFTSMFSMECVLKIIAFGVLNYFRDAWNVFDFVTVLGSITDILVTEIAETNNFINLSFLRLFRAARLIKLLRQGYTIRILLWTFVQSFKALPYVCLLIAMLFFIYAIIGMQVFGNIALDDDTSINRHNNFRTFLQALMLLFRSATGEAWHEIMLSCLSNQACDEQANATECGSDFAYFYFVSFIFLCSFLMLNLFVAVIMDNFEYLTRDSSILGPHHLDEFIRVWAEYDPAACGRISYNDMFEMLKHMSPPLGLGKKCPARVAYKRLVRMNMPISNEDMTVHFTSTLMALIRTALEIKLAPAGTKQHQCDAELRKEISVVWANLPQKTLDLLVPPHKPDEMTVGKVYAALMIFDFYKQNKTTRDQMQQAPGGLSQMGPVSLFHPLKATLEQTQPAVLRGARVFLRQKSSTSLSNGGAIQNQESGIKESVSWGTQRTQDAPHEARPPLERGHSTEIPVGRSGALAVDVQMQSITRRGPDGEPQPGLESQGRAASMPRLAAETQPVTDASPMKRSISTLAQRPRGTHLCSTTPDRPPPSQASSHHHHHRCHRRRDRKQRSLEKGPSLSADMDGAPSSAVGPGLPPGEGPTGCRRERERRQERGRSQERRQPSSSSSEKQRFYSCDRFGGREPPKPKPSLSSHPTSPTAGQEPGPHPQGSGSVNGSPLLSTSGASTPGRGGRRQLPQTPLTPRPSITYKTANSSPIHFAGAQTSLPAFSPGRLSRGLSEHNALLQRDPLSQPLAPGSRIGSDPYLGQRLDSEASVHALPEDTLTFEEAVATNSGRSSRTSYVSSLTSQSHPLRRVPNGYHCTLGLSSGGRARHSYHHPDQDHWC
T1 sequence (P54284 whole entry partner): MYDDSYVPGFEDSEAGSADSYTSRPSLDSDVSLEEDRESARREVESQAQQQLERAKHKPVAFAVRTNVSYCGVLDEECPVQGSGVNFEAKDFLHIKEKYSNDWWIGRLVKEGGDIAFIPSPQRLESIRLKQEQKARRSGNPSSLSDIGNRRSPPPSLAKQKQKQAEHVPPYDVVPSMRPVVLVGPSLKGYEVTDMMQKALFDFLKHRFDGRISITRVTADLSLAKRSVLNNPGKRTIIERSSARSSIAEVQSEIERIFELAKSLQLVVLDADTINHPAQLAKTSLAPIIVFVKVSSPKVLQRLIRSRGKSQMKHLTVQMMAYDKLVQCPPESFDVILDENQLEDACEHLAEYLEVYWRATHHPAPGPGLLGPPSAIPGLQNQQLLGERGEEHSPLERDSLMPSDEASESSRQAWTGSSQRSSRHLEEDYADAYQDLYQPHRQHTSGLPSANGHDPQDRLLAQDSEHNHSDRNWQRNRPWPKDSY
T1 sequence (P54289 25-946 partner limits assumed): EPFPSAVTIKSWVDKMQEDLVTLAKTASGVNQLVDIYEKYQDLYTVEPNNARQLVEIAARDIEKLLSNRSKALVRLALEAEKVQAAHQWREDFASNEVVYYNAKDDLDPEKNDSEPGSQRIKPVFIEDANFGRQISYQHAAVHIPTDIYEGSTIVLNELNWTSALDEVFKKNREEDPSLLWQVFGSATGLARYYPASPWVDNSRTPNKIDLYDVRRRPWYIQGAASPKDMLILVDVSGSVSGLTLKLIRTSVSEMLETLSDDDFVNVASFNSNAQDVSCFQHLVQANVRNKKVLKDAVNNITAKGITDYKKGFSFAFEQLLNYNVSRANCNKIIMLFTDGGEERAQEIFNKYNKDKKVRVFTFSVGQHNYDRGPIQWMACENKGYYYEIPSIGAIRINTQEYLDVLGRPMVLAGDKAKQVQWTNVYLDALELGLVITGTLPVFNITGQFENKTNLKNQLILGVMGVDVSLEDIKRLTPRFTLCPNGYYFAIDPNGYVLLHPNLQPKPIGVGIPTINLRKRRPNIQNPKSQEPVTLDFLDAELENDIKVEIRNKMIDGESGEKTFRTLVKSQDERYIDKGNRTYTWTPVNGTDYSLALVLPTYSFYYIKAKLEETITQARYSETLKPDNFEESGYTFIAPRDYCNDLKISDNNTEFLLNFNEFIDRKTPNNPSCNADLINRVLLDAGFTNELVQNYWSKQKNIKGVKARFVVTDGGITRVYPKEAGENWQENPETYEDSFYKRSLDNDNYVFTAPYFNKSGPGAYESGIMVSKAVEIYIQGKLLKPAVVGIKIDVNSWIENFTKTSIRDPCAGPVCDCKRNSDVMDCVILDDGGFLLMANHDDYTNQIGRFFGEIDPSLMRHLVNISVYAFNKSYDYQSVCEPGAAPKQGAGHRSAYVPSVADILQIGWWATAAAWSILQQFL
T1 sequence (P54289 947-1103 partner limits assumed): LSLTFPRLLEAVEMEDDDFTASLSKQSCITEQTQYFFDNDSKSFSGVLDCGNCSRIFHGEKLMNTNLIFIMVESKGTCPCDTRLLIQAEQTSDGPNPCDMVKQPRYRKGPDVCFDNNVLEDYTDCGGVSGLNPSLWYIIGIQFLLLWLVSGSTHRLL
Procedure, shortened: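 IMR-32 cells were differentiated 7–13 days (1 mM dibutyryl cAMP, 2.5 µM BrdU) and Indo-1-loaded. They were preincubated 10 min at 30 °C with compound and 5 µM nitrendipine in HEPES/Tris pH 7.4 HBSS with 0.5% BSA, then KCl/CaCl2-depolarized. The peak-minus-basal 400/490 nm emission ratio gave IC50 by four-parameter logistic fit.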

Compound	IC50 (N-type Ca^2+ Channel)	DBA/2 mice % Protection dose @ 30 mg/kg (DBA/2 mice)	DBA/2 mice % Protection (10 mg/kg) (DBA/2 mice)
CC(C)CC(NC(C)C)C(=O)NC(Cc1ccc(OCc2ccccc2)cc1)C(=O)OC(C)(C)C (stereo not drawn) [Example 92, [S-(R*,R*)]-3-(4-Benzyloxy-phenyl)-2-(2-isopropylamino4-methyl-pentanoylamino)-propionic acid tert-butyl ester]	800 nM	100%	–
CC(C)C[C@@H](C(=O)N[C@@H](Cc1ccc(OCc2ccccc2)cc1)C(=O)NC(C)(C)C)N(C)CC1CCCCC1 (relative stereo) [Example 25, [S-(R*,R*)]-2-(Cyclohexylmethyl-methyl-amino)-4-methyl-pentanoic acid [2-(4-benzyloxy-phenyl)-1-tert-butylcarbamoyl-ethyl]-amide]	670 nM	100%	–
CC(C)C[C@H](NC1CCCCC1)C(=O)N[C@@H](Cc1ccc(OCc2ccccc2)cc1)C(=O)OC(C)(C)C (relative stereo) [Example 93, [S-(R*,R*)]-3-(4-Benzyloxy-phenyl)-2-(2-cyclohexylamino-4-methyl-pentanoylamino)-propionic acid tert-butyl ester]	200 nM	80%	–
CC(C)CC(C(=O)NC(Cc1ccc(OCc2ccccc2)cc1)C(=O)NC(C)(C)C)N(C)C1C=CCCC1 (stereo not drawn) [Example 47, [S-(R*,R*)]-2-(Cyclohex-2-enyl-methyl-amino)-4-methyl-pentanoic acid [2-(4-benzyloxy-phenyl)-1-tert-butylcarbamoyl-ethyl]-amide]	280 nM	100%	–
CC(C)=CCNC(CC(C)C)C(=O)NC(Cc1ccc(OCc2ccccc2)cc1)C(=O)OC(C)(C)C (stereo not drawn) [Example 31, [S-(R*,R*)]-3-(4-Benzyloxy-phenyl)-2-[4-methyl-2-(3-methyl-but-2-enylamino)-pentanoylamino]-propionic acid tert-butyl ester]	320 nM	100%	–
CC(C)CC(C(=O)NC(Cc1ccc(OCc2ccccc2)cc1)C(=O)NC(C)(C)C)N(C)Cc1ccc(C(C)(C)C)cc1 (stereo not drawn) [Example 13, [S-(R*,R*)]-2-[(4-tert-Butyl-benzyl)-methyl-amino]-4-methyl-pentanoic acid [2-(4-benzyloxy-phenyl)-1-tert-butylcarbamoyl-ethyl]-amide]	40 nM	60%	–
CC(C)C[C@@H](C(=O)N[C@@H](Cc1ccc(OCc2ccccc2)cc1)C(=O)NC(C)(C)C)N(C)Cc1ccc(O)cc1 (relative stereo) [Example 82, [S-(R*,R*)]-2-[(4-Hydroxy-benzyl)-methyl-amino]-4-methyl-pentanoic acid [2-(4-benzyloxy-phenyl)-1-tert-butylcarbamoyl-ethyl]-amide]	1300 nM	–	–

Second part, led by results:

IC50 (N-type Ca^2+ Channel)	Compound	DBA/2 mice % Protection dose @ 30 mg/kg (DBA/2 mice)	DBA/2 mice % Protection (10 mg/kg) (DBA/2 mice)
370 nM	CC(C)CCN(C)[C@@H](CC(C)C)C(=O)N[C@H](Cc1ccc(OCc2ccccc2)cc1)C(=O)NC(C)(C)C (relative stereo) [Example 84, [S-(R*,S*)]-4-Methyl-2-[methyl-(3-methyl-butyl)-amino]-pentanoic acid [2-(4-benzyloxy-phenyl)-1-tert-butylcarbamoyl-ethyl]-amide]	–	100%
320 nM	CC(C)CCN(C)[C@@H](CC(C)C)C(=O)N[C@@H](Cc1ccc(OCc2ccccc2)cc1)C(=O)NC(C)(C)C (relative stereo) [Example 7, [S-(R*,R*)]-4-Methyl-2-[methyl-(3-methyl-butyl)-amino]-pentanoic acid [2-(4-benzyloxy-phenyl)-1-tert-butylcarbamoyl-ethyl]-amide]	100%	–
900 nM	CC(C)C[C@@H](C(=O)N[C@@H](Cc1ccc(OCc2ccccc2)cc1)C(=O)NC(C)(C)C)N(C)Cc1ccco1 (relative stereo) [Example 90, [S-(R*,R*)]-2-(Furan-2-ylmethyl-methyl-amino)-4-methyl-pentanoic acid [2-(4-benzyloxy-phenyl)-1-tert-butylcarbamoyl-ethyl]-amide]	60%	–
2200 nM	CC(C)C[C@@H](C(=O)N[C@@H](Cc1ccc(OCc2ccccc2)cc1)C(=O)NC(C)(C)C)N(C)CCC(C)O (relative stereo) [Example 97, [S-(R*,R*)]-2-[(3-Hydroxy-butyl)-methyl-amino]-4-methyl-pentanoic acid [2-(4-benzyloxy-phenyl)-1-tert-butylcarbamoyl-ethyl]-amide]	40%	–
1500 nM	CCC(C)N(C)C(CC(C)C)C(=O)NC(Cc1ccc(OCc2ccccc2)cc1)C(=O)NC(C)(C)C (racemic) [Example 103, [S-[R*,R*,(RS)]]-2-(sec-Butyl-methyl-amino)-4-methyl-pentanoic acid [2-(4-benzyloxy-phenyl)-1-tert-butylcarbamoyl-ethyl]-amide]	–	100%
